Here are results for three compounds from paper PMC3095212 (Journal of immunology (Baltimore, Md. : 1950), 2011).

Assay [1] relates to CD8-negative m33 Y48βA T cells. Put plainly: T cell stimulation/antagonism, secreted IL-2. Particulars: 24 h. Type of assay: cell-based, mouse.
A further assay has as its system CD8-negative 2C T cells. Put plainly: T cell stimulation/antagonism, secreted IL-2. Particulars: 24 h. Type of assay: cell-based, mouse.
The subject of another assay is CD8-negative m33 T cells. Particulars: 24 h.
Another assay has as its system K^b. Particulars: ref [28]; cited from earlier work.

Residues, ends and D or L forms follow the SMILES beside them.

For the compound `CC(C)C[C@H](NC(=O)[C@H](CC(=O)O)NC(=O)[C@H](Cc1ccccc1)NC(=O)[C@@H]1CCCN1C(=O)[C@H](CCCNC(=N)N)NC(=O)[C@@H]1CCCN1C(=O)[C@H](CO)NC(=O)[C@H](CC(C)C)NC(=O)[C@@H](N)CCC(N)=O)C(=O)O` [QL9 F5R] (H-QLSPRPFDL-OH), the IC50 in assay [1] was found to be 4.7 ± 0.4 nM; with CD8-negative 2C T cells, 0.44 ± 0.27 nM.

For `CC[C@H](C)[C@H](NC(=O)[C@@H](N)CO)C(=O)N[C@@H](Cc1ccc(O)cc1)C(=O)N[C@@H](C)C(=O)N[C@@H](Cc1ccc(O)cc1)C(=O)N[C@@H](Cc1ccc(O)cc1)C(=O)NCC(=O)N[C@@H](CC(C)C)C(=O)O` [SIY R4A] (H-SIYAYYGL-OH), the IC50 in the assay on CD8-negative m33 T cells came to 0.15 nM.

As for SIINFEKL [OVA], the “half-life of OVA/K^b” value in the assay with K^b was 23 h.

One may read the IC50 as the point on the concentration scale where inhibition reaches its midpoint.
